Like-named read-outs stand apart in the source and are kept apart here.
What was measured:
[1] = target: MMP-3CD (catalytic domain of stromelysin-1) (Homo sapiens, UniProt P08254); assay: Thiopeptolide substrate hydrolysis inhibition assay, MMP-3CD; format: biochemical; details: Table II; micromolar concentration; MES buffer pH 6.0
Protocol: (§1) Thiopeptolide substrates show virtually no decomposition or hydrolysis at or below neutral pH in the absence of a matrix metalloproteinase enzyme.
It should be appreciated that the assay buffer used with MMP-3CD is 50 mM N-morpholinoethanesulfonate (“MES”) at pH 6.0 rather than the HEPES buffer at pH 7.0 described above.

[2] = target: MMP-13CD (catalytic domain of collagenase-3) (Homo sapiens, UniProt P45452); assay: Thiopeptolide substrate hydrolysis inhibition assay, MMP-13CD; format: biochemical
Excerpt: as §1

[3] = target: T1, MMP-12CD (Homo sapiens, UniProt P39900); assay: Thiopeptolide substrate hydrolysis inhibition assay, MMP-12CD; format: biochemical; details: Table II; micromolar concentration; HEPES pH 7.0
T1 construct: 12CD
T1 sequence (P39900 106-263 limits assumed): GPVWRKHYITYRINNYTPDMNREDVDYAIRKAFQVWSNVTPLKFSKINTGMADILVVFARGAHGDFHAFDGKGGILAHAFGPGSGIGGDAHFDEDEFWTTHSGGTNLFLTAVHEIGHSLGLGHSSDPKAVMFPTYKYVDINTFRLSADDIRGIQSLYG
Excerpt: as §1

[4] = target: MMP-9FL (full-length Gelatinase B) (Homo sapiens, UniProt P14780); assay: Thiopeptolide substrate hydrolysis inhibition assay, MMP-9FL; format: biochemical; details: Table II; micromolar concentration; HEPES pH 7.0
MMP-9FL (full-length Gelatinase B), sequence (P14780 94-707, species assumed): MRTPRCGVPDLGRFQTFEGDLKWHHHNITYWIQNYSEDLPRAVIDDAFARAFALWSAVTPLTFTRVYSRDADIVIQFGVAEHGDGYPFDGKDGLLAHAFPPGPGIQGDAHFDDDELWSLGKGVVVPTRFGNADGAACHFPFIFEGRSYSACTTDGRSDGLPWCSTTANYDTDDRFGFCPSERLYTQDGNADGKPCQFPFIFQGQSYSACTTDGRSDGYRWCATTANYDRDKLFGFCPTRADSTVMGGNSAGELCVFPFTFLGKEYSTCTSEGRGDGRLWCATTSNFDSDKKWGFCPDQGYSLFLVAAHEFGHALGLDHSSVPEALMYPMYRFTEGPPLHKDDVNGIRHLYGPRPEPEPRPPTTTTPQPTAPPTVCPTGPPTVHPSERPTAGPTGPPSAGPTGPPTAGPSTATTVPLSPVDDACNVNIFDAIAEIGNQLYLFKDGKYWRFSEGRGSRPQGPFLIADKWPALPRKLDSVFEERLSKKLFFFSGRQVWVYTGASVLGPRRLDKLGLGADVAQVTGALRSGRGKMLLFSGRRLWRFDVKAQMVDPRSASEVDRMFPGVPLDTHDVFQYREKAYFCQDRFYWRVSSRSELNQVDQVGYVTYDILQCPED
Excerpt: as §1

[5] = Table I, thiopeptolide substrate, HEPES pH 7.0, 22° C., read-out: MMP-13CD IC50
[6] = Table II, micromolar concentration, HEPES pH 7.0, read-out: IC50 MMP-13CD

MMP-3CD (catalytic domain of stromelysin-1), sequence (P08254 100-272 limits assumed): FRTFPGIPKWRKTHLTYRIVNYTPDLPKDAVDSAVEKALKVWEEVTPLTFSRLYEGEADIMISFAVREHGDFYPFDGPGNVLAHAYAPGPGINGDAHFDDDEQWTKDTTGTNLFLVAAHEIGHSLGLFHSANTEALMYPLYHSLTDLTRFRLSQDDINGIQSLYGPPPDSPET

Compound | melting point | IC50 [2, 5] [nM] | other results
O=C(OCc1ccccc1)c1cc2c(=O)n(Cc3ccccc3)c(=O)[nH]c2s1 [Example 1, 3-Benzyl-2,4-dioxo-1,2,3,4-tetrahydro-thieno[2,3-d]pyrimidine-6-carboxylic acid benzyl ester] | 195 to 197 °C | 740 | IC50 [1]: 18000 nM; IC50 [2, 6]: 610 nM
O=C(OCc1ccncc1)c1cc2c(=O)n(Cc3ccccc3)c(=O)[nH]c2s1 [Example 2, 3-Benzyl-2,4-dioxo-1,2,3,4-tetrahydro-thieno[2,3-d]pyrimidine-6-carboxylic acid pyridin-4-ylmethyl ester] | 248 to 250 °C | 310 | –
O=C(NCc1ccccc1)c1cc2c(=O)n(Cc3ccccc3)c(=O)[nH]c2s1 [Example 3, 3-Benzyl-2,4-dioxo-1,2,3,4-tetrahydro-thieno[2,3-d]pyrimidine-6-carboxylic acid benzyl amide] | > 255 °C | 30000 | –
O=C(OCc1ccc(/C=C/c2ccccc2)cc1)c1cc2c(=O)n(Cc3ccccc3)c(=O)[nH]c2s1 [Example 4] | 247 to 249 °C | 16000 | –
Cc1c(C(=O)OCc2ccccc2)sc2[nH]c(=O)n(CCc3ccccc3)c(=O)c12 [Example 5, 5-Methyl-2,4-dioxo-3-phenylethyl-1,2,3,4-tetrahydro-thieno[2,3-d]pyrimidine-6-carboxylic acid benzyl ester] | 207 to 209 °C | 51000 | –
Cc1ccc(-n2c(=O)[nH]c3sc(C(=O)OCc4ccccc4)c(C)c3c2=O)cc1 [Example 7, 5-Methyl-2,4-dioxo-3-p-tolyl-1,2,3,4-tetrahydro-thieno[2,3-d]-6-carboxylic acid benzyl ester] | 267 to 269 °C | 10000 | –
Cn1c(=O)n(Cc2ccccc2)c(=O)c2cc(C(=O)OCc3ccccc3)sc21 [Example 9, 3-Benzyl-1-methyl-2,4-dioxo-1,2,3,4-tetrahydro-thieno[2,3-d]pyrimidine-6-carboxylic acid benzyl ester] | 143 to 145 °C | – | –
COc1cccc(CNC(=O)c2cc3c(=O)n(Cc4ccc(CC(=O)O)cc4)c(=O)n(C)c3s2)c1 [Example 39, {4-[6-(3-Methoxy-benzylcarbamoyl)-1-methyl-2,4-dioxo-1,4-dihydro-2H-thieno[2,3-d]pyrimidin-3-ylmethyl]-phenyl}-acetic acid] | – | – | IC50 [3]: 10000 nM; IC50 [1]: 16000 nM; IC50 [2, 6]: 3.8 nM
O=C(OCc1ccncc1)c1cc2c(=O)n(Cc3ccc(Br)cc3)c(=O)[nH]c2s1 [Example 49, 3-(4-Bromo-benzyl)-2,4-dioxo-1,2,3,4-tetrahydro-thieno[2,3-d]pyrimidine-6-carboxylic acid pyridin-4-ylmethyl ester] | – | 260 | IC50 [1]: 23000 nM; IC50 [2, 6]: 260 nM
CCn1c(=O)n(Cc2ccccc2)c(=O)c2cc(C(=O)OCc3ccccc3)sc21 [Example 73, 3-Benzyl-1-ethyl-2,4-dioxo-1,2,3,4-tetrahydro-thieno[2,3-d]pyrimidine-6-carboxylic acid benzyl ester] | 147 to 148 °C | > 100000 | –
COc1ccc(CNC(=O)c2cc3c(=O)n(Cc4ccc(S(N)(=O)=O)cc4)c(=O)n(C)c3s2)cc1 [Example 217, 1-Methyl-2,4-dioxo-3-(4-sulfamoyl-benzyl)-1,2,3,4-tetrahydro-thieno[2,3-d]pyrimidine-6-carboxylic acid 4-methoxy-benzylamide] | – | 78.5 | IC50 [4]: 30000 nM; IC50 [3]: 30000 nM; IC50 [1]: 27000 nM; IC50 [2, 6]: 78.5 nM
COc1ccc(CNC(=O)c2cc3c(=O)n(Cc4ccc(/C(N)=N/O)cc4)c(=O)n(C)c3s2)cc1 [Example 220, 3-[4-(N-Hydroxycarbamimidoyl)-benzyl]-1-methyl-2,4-dioxo-1,2,3,4-tetrahydro-thieno[2,3-d]pyrimidine-6-carboxylic acid 4-methoxy-benzylamide] | 226 to 228 °C (dec.) | 61 | –
COc1ccc(CNC(=O)c2cc3c(=O)n(CC#N)c(=O)n(C)c3s2)cc1 [Example 223, 3-Cyanomethyl-1-methyl-2,4-dioxo-1,2,3,4-tetrahydro-thieno[2,3-d]pyrimidine-6-carboxylic acid 4-methoxy-benzylamide] | 180 to 183 °C | – | –
COc1cccc(CNC(=O)c2cc3c(=O)n(CC#N)c(=O)n(C)c3s2)c1 [Example 224, 3-Cyanomethyl-1-methyl-2,4-dioxo-1,2,3,4-tetrahydro-thieno[2,3-d]pyrimidine-6-carboxylic acid 3-methoxy-benzylamide] | 159 to 163 °C | 783 | –
COC(=O)/C=C/Cn1c(=O)c2cc(C(=O)NCc3ccc(OC)cc3)sc2n(C)c1=O [Example 225, (E)-4-[6-(4-Methoxy-benzylcarbamoyl)-1-methyl-2,4-dioxo-1,4-dihydro-2H-thieno[2,3-d]pyrimidin-3-yl]-but-2-enoic acid methyl ester] | 169 to 171 °C | 225 | –
COc1ccc(CNC(=O)c2cc3c(=O)n(CC#N)c(=O)n(C)c3s2)cc1 [Example 365, 3-Cyanomethyl-1-methyl-2,4-dioxo-1,2,3,4-tetrahydro-thieno[2,3-d]pyrimidine-6-carboxylic acid 4-methoxy-benzylamide] | – | 1550 | –
COc1cccc(CNC(=O)c2cc3c(=O)n(Cc4ccc(S(=O)(=O)NC5CC5)cc4)c(=O)n(C)c3s2)c1 [Example 367, 3-(4-Cyclopropylsulfamoyl-benzyl)-1-methyl-2,4-dioxo-1,2,3,4-tetrahydro-thieno[2,3-d]pyrimidine-6-carboxylic acid 3-methoxy-benzylamide] | – | 8.25 | –
COc1cccc(CNC(=O)c2cc3c(=O)n(Cc4ccc([N+](=O)[O-])nc4)c(=O)n(C)c3s2)c1 [Example 368, 1-Methyl-3-(6-nitro-pyridin-3-ylmethyl)-2,4-dioxo-1,2,3,4-tetrahydro-thieno[2,3-d]pyrimidine-6-carboxylic acid 3-methoxy-benzylamide] | – | 735 | –
COc1cc(CNC(=O)c2cc3c(=O)n(Cc4ccc([N+](=O)[O-])nc4)c(=O)n(C)c3s2)ccn1 [Example 370, 1-Methyl-3-(6-nitro-pyridin-3-ylmethyl)-2,4-dioxo-1,2,3,4-tetrahydro-thieno[2,3-d]pyrimidine-6-carboxylic acid (2-methoxy-pyridin-4-ylmethyl)-amide] | – | 1170 | –
COc1cc(CNC(=O)c2cc3c(=O)n(CC4CCCCC4)c(=O)n(C)c3s2)ccn1 [Example 371, 3-Cyclohexylmethyl-1-methyl-2,4-dioxo-1,2,3,4-tetrahydro-thieno[2,3-d]pyrimidine-6-carboxylic acid (2-methoxy-pyridin-4-ylmethyl)-amide] | – | 220 | –
COc1cccc(CNC(=O)c2cc3c(=O)n(Cc4ccc(N)nc4)c(=O)n(C)c3s2)c1 [Example 384, 3-(6-Amino-pyridin-3-ylmethyl)-1-methyl-2,4-dioxo-1,2,3,4-tetrahydro-thieno[2,3-d]pyrimidine-6-carboxylic acid 3-methoxy-benzylamide] | – | 660 | –
COc1ccc(CNC(=O)c2cc3c(=O)n(CC#Cc4ccccc4)c(=O)n(C)c3s2)cc1 [Example 385, 1-Methyl-2,4-dioxo-3-(3-phenyl-prop-2-ynyl)-1,2,3,4-tetrahydro-thieno[2,3-d]pyrimidine-6-carboxylic acid 4-methoxy-benzylamide] | – | 7 | –

— patent publication US20030004172A1, “Fused pyrimidinone matrix metalloproteinase inhibitors” (priority 2001, published 2003)
